In data set [1] the target is T1, human ACC2 (Homo sapiens, UniProt O00763).
T1 construct: His6 (from vector pFAST-BacHTa); made in house; host or cells: SF-9 insect cells, recombinant baculovirus BAC-ACC2 (Nd)
Kind of data set: Measurement of ACC2 inhibitory activity (malachite green, recombinant ACC2 (Nd)). It is filed as biochemical. Conditions: read-out: ACC2 inhibitory rate (%). The procedure:
The ACC2 inhibitory action of the compound of the present invention was evaluated by the following method.
(1) Cloning of Human ACC2 Gene and Preparation of Recombinant Baculovirus
Human ACC2 gene was cloned by PCR using a human skeletal muscle cDNA library (Clontech) as a template and Primer 1 and Primer 2 shown below. Primer 1 and Primer 2 were prepared by adding SalI, XbaI restriction enzyme recognition sequences based on the information of the base sequence of human ACC2 gene (Genbank Accession U89344).
PCR was performed using Pyrobest DNA polymerase (TAKARA BIO INC.). The obtained PCR product was cloned to pT7 Blue vector (Novagen) and after confirmation of the base sequence, digested with restriction enzymes SalI and XbaI. The obtained DNA fragment was inserted into pFAST-BacHTa (Invitrogen) digested with restriction enzymes SalI and XbaI to give expression plasmid ACC2/pFAST-BacHTa.
A plasmid for expression of ACC2 without a mitochondrial targeting sequence was prepared by PCR using the expression plasmid as a template, and Primer 3 (SalI restriction enzyme recognition sequence was added) and Primer 4 prepared by reference to the information of human ACC2 gene base sequence (Genbank Accession U89344).
PCR was performed using Pyrobest-DNA polymerase (TAKARA BIO INC.). The obtained PCR product was cloned to pT7 Blue vector (Novagen) and after confirmation of the base sequence, digested with restriction enzymes SalI and AflII. The obtained DNA fragment was inserted into ACC2/pFAST-BacHTa digested with restriction enzymes SalI and AflII to give expression plasmid ACC2mito7/pFAST-BacHTa.
Using the expression plasmid ACC2mito7/pFAST-BacHTa and BAC-TO-BAC Baculovirus Expression System (Invitrogen), virus stock BAC-ACC2 of recombinant Baculovirus (N terminal deleted (hereinafter Nd)) was prepared.
(2) Preparation of ACC2 (Nd) Protein
SF-9 cells (Invitrogen) were inoculated to a medium (2 L) for insect cells (Sf-900IISFM medium (Invitrogen) containing 10% fetal bovine serum (Trace), 50 mg/L Gentamicin (Invitrogen), 0.1% Pluronic F-68 (Invitrogen)) at 0.5×10^6 cells/mL, and cultured with shaking in Wave Bioreactor (Wave) at 27° C., 20 rpm, rocking angle 6°, oxygen concentration 30%.
On day 4 of the culture, 3 L of the medium for insect cells was added, the rocking angle was set to 8°, and the cells were further cultured. On day 5 of the culture, 100 mL of recombinant Baculovirus BAC-ACC2 (Nd) was added, 5 L of the medium for insect cells was further added, the rocking angle was set to 11°, and the cells were cultured for 3 days. The culture medium was centrifuged at 1000×g for 10 min to give virus-infected cells. The cells were washed with phosphate buffered saline (Invitrogen) and centrifuged under the same conditions. The obtained cells were cryopreserved at −80° C.
The cryopreserved cells were thawed in ice and suspended in 900 mL of 25 mM HEPES buffer (pH 7.5) containing 10% Glycerol, 0.13 M NaCl, 1 mM EDTA, 25 mM Sodium β-Glycerophosphate and 1 mM Sodium Orthovanadate, and supplemented with Complete Protease Inhibitor (Nippon Boehringer Ingelheim Co., Ltd.). The obtained suspension was homogenized three times in a polytron homogenizer (Kinematica) at 20,000 rpm for 30 sec. The obtained cell disruption solution was clarified by centrifugation at 31000×g for 60 min, and filtered through a 0.45 μm filter. The filtrate was passed through a column packed with 60 mL of Ni-NTA Super Flow Gel (QUIAGEN) at a flow rate of about 5 mL/min. The column was washed with buffer A (50 mM HEPES (pH 7.5) containing 0.3 M NaCl), further washed with buffer A containing 20 mM Imidazole, and eluted with buffer A containing 100 mM Imidazole. The eluate was concentrated with Vivaspin 20 (Vivascience) with a molecular weight cut off of 30K. The obtained concentrate was dialyzed against 50 mM HEPES (pH 7.5) containing 10 mM MgCl2, 2 mM Dithiothreitol, 10 mM Tripotassium Citrate and 0.3 M NaCl. The inner dialysate was filtered through a 0.22 μm filter to give ACC2 (Nd). […]

A short description of data set [2]: Respiratory quotient (RQ) measurement in rats on Western diet. It is filed as in vivo, rat. Conditions: 20 mg/kg by gavage, male F344/Jcl rats, Mean ± S.D., N = 5. The protocol:
5-week-old male F344/Jcl rats (CLEA Japan, Inc., Tokyo) were acclimated to the rearing environment for 1 week after purchase and the diet was changed to Western diet (D12079B, Research diet). They were used for the experiment of Respiratory quotient (RQ) measurement at 8-week-old. For the RQ measurement experiment, the body weight was measured in the late afternoon (15:30-16:30) of the previous day and the morning (8:00-9:00) of the day, and the rats with high or low body weight increase were excluded. To the animals were administered by gavage 15 mL/kg of a liquid diet (F2LCW, Oriental Yeast Co., Ltd) prepared to a concentration of 4.95 g/15 mL (1.436 kcal/mL), and they were placed in an indirect calorimeter (Oxymax) chamber manufactured by Columbus Instruments, and RQ was recorded every 10 min. RQ values were confirmed about 1 hr after the start of the measurement and the animals were grouped (5 per group) such that a difference between groups would be small. For medication, a solvent (0.5% Methyl Cellulose, Wako Pure Chemical Industries, Ltd.) or a test compound (0.5% Methyl Cellulose suspension) was administered by gavage at 5 mL/kg. RQ was measured at 10 minute intervals from 0 to 3 hours after administration, and the average thereof was calculated. All values are shown in mean±standard deviation and statistical analysis was performed by the Dunnett-test.

Data set [3] in a line: Body weight after 4 weeks of oral administration in rats on Western diet (anti-obesity action). It is filed as in vivo, rat. Conditions: male F344/Jcl rats; for body weight after administration for 4 weeks: Western diet, Mean ± S.D., N = 6. The procedure:
6-week-old male F344/Jcl rats (CLEA Japan, Inc., Tokyo) were individually reared immediately after purchase and Western diet (D12079B, Research diet) was given. From the next day, an acclimation dosing (0.5% Methyl Cellulose, 5 mL/kg, oral administration) was started (once between 8:00 AM and 11:00 AM) and body weight and food consumption amount were appropriately measured. The rats with body weight and consumption amount extremely out of the average values in the acclimation dosing period were excluded. At the stage of 7-week-old, the body weight, food consumption amount, and body fat by Echo-MRI were measured, and the rats were grouped (6 per group) based on these measurement results. During 4 weeks of the test period, body weight was measured between 8:00 AM and 11:00 AM, and a solvent (0.5% Methyl Cellulose) or a test compound (0.5% Methyl Cellulose suspension) was consecutively administered by gavage at 5 mL/kg.
4 Weeks later, the body weight was measured in the morning. All values show mean±standard deviation and Williams' test and t-test were used for statistical analysis.

Usually melting point stands for the temperature of the solid-liquid transition.

Structures are written as SMILES.

T1 sequence (O00763 117-2458 limits assumed): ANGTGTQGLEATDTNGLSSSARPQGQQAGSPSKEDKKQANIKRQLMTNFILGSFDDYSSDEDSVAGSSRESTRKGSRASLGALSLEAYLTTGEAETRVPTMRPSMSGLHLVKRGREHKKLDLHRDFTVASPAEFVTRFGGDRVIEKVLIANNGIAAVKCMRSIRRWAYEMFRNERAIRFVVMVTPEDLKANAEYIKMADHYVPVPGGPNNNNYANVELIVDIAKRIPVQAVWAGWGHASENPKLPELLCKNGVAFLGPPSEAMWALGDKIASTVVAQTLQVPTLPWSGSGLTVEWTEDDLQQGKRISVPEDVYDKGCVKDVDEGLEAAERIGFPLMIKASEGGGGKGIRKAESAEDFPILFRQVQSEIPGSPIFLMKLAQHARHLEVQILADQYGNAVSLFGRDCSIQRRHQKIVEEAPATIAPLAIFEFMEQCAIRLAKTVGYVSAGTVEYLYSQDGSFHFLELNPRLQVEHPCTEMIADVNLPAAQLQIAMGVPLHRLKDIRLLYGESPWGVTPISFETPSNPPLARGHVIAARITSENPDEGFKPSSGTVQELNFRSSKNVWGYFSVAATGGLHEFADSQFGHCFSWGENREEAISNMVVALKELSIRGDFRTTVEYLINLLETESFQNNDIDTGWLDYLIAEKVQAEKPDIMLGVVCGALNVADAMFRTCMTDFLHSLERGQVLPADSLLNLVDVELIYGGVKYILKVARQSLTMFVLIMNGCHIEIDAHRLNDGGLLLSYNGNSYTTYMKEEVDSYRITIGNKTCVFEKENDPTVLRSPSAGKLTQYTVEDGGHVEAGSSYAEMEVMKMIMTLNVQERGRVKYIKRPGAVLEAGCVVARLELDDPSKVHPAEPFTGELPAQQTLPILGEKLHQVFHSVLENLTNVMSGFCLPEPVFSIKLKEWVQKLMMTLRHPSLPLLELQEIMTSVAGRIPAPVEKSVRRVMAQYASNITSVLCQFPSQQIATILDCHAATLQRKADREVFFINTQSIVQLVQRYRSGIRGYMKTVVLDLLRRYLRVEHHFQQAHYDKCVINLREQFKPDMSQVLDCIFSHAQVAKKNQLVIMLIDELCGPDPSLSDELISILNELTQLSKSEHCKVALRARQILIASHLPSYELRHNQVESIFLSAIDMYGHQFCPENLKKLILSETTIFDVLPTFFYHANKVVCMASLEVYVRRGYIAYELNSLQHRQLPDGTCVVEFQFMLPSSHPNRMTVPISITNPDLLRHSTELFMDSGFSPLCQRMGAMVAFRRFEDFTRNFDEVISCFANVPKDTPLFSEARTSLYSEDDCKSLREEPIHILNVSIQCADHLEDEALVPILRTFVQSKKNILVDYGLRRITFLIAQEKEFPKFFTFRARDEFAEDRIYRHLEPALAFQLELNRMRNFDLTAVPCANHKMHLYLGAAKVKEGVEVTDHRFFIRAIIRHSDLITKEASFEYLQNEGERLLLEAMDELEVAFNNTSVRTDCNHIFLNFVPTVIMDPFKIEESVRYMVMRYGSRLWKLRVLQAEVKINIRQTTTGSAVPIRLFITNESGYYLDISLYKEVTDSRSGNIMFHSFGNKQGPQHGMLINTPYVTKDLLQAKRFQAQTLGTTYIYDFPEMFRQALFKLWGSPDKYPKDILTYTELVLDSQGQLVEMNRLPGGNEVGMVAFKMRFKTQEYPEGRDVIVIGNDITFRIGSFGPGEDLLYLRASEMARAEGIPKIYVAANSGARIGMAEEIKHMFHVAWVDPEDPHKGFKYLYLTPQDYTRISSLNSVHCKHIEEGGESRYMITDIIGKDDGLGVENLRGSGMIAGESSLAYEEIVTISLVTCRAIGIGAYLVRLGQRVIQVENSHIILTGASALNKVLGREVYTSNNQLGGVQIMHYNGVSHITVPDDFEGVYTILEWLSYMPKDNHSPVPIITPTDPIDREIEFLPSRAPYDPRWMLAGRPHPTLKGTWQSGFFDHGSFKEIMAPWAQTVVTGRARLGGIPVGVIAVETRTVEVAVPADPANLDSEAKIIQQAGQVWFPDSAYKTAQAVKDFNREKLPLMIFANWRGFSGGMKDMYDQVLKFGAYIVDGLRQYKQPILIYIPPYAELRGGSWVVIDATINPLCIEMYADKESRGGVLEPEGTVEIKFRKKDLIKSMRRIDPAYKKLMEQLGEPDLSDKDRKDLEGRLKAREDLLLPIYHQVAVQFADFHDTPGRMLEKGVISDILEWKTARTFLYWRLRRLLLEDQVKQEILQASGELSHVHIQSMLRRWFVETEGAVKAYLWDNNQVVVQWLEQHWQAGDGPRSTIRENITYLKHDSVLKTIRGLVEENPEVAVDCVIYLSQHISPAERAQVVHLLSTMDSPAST

`CC(=O)NC(C)CCC1CCN(c2nc3ccc(OCC4CC4)cc3o2)CC1` (racemic) [Example 5, N-(3-{1-[6-(cyclopropylmethoxy)-1,3-benzoxazol-2-yl]piperidin-4-yl}-1-methylpropyl)acetamide] displayed a melting point of 131 to 132 °C. Further, the inhibition at 10 µM in data set [1] was determined as 104%.
`CC(=O)N[C@@H](C)COC1CCN(c2nc3ccc(OCC4CC4)cc3o2)CC1` [Example 1, N-[(1S)-2-({1-[6-(cyclopropylmethoxy)-1,3-benzoxazol-2-yl]piperidin-4-yl}oxy)-1-methylethyl]acetamide] had a melting point of 122 to 123 °C. Also, the inhibition at 10 µM in data set [1] came to 97%. Also, in data set [2], the “average RQ of 0 to 3 hours after administration” value amounted to 0.795 ± 0.013. Further, in data set [3] (20 mg/kg/day by gavage), the “comparison with control group (body weight after 4 weeks)” value (from here on “comparison with control group”) was −6.1% and the “body weight after administration for 4 weeks” value (from here on “body weight … for 4 weeks”) amounted to 265.1 ± 7.2.
In the case of `CC(=O)N[C@@H](C)COC1CCN(c2nc3cc(OCC4CC4)ccc3o2)CC1` [Example 2, N-[(1S)-2-({1-[5-(cyclopropylmethoxy)-1,3-benzoxazol-2-yl]piperidin-4-yl}oxy)-1-methylethyl]acetamide], the melting point is 99 to 100 °C. Besides, the inhibition at 10 µM in data set [1] was 100%. Besides, the “average RQ of 0 to 3 hours after administration” value in data set [2] was found to be 0.787 ± 0.019. Moreover, in data set [3] (10 mg/kg/day by gavage), the “comparison with control group” value is given as −5.4% and the “body weight … for 4 weeks” value is 267.2 ± 4.1. In addition, in data set [3] (20 mg/kg/day by gavage), the “comparison with control group” value is listed as −6.0% and the “body weight … for 4 weeks” value was determined as 265.4 ± 10.8.
For `CC(=O)N[C@@H](C)COC1CCN(c2nc3cc(OCC4CC4)ccc3s2)CC1` [Example 3, N-[(1S)-2-({1-[5-(cyclopropylmethoxy)-1,3-benzothiazol-2-yl]piperidin-4-yl}oxy)-1-methylethyl]acetamide], the inhibition at 10 µM in data set [1] amounted to 104%.
The same measure, in the same setting: then `CC(COC1CCN(c2nc3ccc(OCC4CC4)cc3o2)CC1)Nc1ccon1` (stereo not drawn) [Example 4, N-[2-({1-[6-(cyclopropylmethoxy)-1,3-benzoxazol-2-yl]piperidin-4-yl}oxy)-1-methylethyl]isoxazol-3-amine], with 100%.
For the compound `CC(=O)N[C@@H](C)CCC1CCN(c2nc3ccc(OCC4CC4)cc3o2)CC1` [Example 5a, N-[(1S)-(3-{1-[6-(cyclopropylmethoxy)-1,3-benzoxazol-2-yl]piperidin-4-yl}-1-methylpropyl)]acetamide], the melting point is 138.2 to 138.4 °C. The inhibition at 10 µM in data set [1] came to 106%.
Turning to `CC(=O)N[C@@H](C)COC1CCN(c2nc3cc(OCC4CCC4)ccc3o2)CC1` [Example 6, N-[(1S)-2-({1-[5-(cyclobutylmethoxy)-1,3-benzoxazol-2-yl]piperidin-4-yl}oxy)-1-methylethyl]acetamide], the melting point was 109 to 110 °C. The inhibition at 10 µM in data set [1] was 98%.
As to `Cc1conc1NC(C)COC1CCN(c2nc3ccc(OCC4CC4)cc3o2)CC1` (stereo not drawn) [Example 7, N-[2-({1-[6-(cyclopropylmethoxy)-1,3-benzoxazol-2-yl]piperidin-4-yl}oxy)-1-methylethyl]-4-methylisoxazol-3-amine], the inhibition at 10 µM in data set [1] was determined as 100%.
`CC(=O)N[C@@H](C)COC1CCN(c2nc3ccc(OCC(C)C)cc3o2)CC1` [Example 33, N-[(1S)-1-methyl-2-({1-[6-(2-methylpropoxy)-1,3-benzoxazol-2-yl]piperidin-4-yl}oxy)ethyl]acetamide] returned a melting point of 103 to 105 °C. The inhibition at 10 µM in data set [1] came to 99%.
Consider `CC(=O)N[C@@H](C)COC1CCN(c2nc3ccc(OCC4CCC4)cc3o2)CC1` [Example 34, N-[(1S)-2-({1-[6-(cyclobutylmethoxy)-1,3-benzoxazol-2-yl]piperidin-4-yl}oxy)-1-methylethyl]acetamide], for which the inhibition at 10 µM in data set [1] came to 102%.
Regarding `CC(=O)N[C@@H](C)COC1CCN(c2nc3ccc(OCCC4CC4)cc3o2)CC1` [Example 35, N-[(1S)-2-({1-[6-(2-cyclopropylethoxy)-1,3-benzoxazol-2-yl]piperidin-4-yl}oxy)-1-methylethyl]acetamide], the melting point lay in the range of 99.3 to 99.6 °C. Besides, the inhibition at 10 µM in data set [1] worked out at 102%.
`CC(=O)NC(C)CO[C@H]1CC[C@H](c2cc3ccc(OCC4CC4)cc3o2)CC1` (stereo partly drawn) [Example 38, N-[2-({trans-4-[6-(cyclopropylmethoxy)-1-benzofuran-2-yl]cyclohexyl}oxy)-1-methylethyl]acetamide]: the melting point lay in the range of 104 to 105 °C.
The same measure, in the same setting: then `CC(=O)NC(C)CO[C@H]1CC[C@H](c2nc3ccc(OCC4CC4)cc3o2)CC1` (stereo partly drawn) [Example 39, N-[2-({trans-4-[6-(cyclopropylmethoxy)-1,3-benzoxazol-2-yl]cyclohexyl}oxy)-1-methylethyl]acetamide], with 131 to 132 °C.
Compound `CC(=O)N[C@@H](C)CO[C@H]1CC[C@H](n2cc3ccc(OCCC4CC4)cc3n2)CC1` [Example 40, N-[(1S)-2-({trans-4-[6-(2-cyclopropylethoxy)-2H-indazol-2-yl]cyclohexyl}oxy)-1-methylethyl]acetamide] gave a melting point of 98 to 99 °C.
On the same count and under the same terms, the same measure for `CC(=O)NC(C)CC[C@H]1CC[C@H](n2cc3ccc(OCC4CC4)cc3n2)CC1` (stereo partly drawn) [Example 41, N-(3-{trans-4-[6-(cyclopropylmethoxy)-2H-indazol-2-yl]cyclohexyl}-1-methylpropyl)acetamide]: 139 to 140 °C.

The values above are taken from US8703758B2, “Bicyclic compound” (Takeda Pharmaceutical Company Limited, priority 2010, dated 2014).
